Data as given in patent US7569549B2, “Isostructural pseudopolymorphs of 9-deoxo-9a-aza-9a-methyl-9a-homoerythromycin A” (Pliva Hrvatska D.O.O., priority 2002, dated 2009).
Blank lines part the entries; values can stand above or below the compound they belong to.

What was measured:
[1] = Dissolution profiles by USP Method 2 (PharmaTest Dissolution Tester), dissolved content by HPLC; assay type: physicochemical
Experimental: The comparative dissolution profiles were determined by USP Method 2, PharmaTest Dissolution Tester, PTW SII; the content of dissolved 9-deoxo-9a-aza-9a-methyl-9a-homoerythromycin A was measured by HPLC. The data thus obtained are set forth in Table 6 below, and plotted in FIGS. 17 and 18.
The comparative dissolution profiles were determined by USP Method 2, PharmaTest Dissolution Tester, PTW SII; the content of dissolved 9-deoxo-9a-aza-9a-methyl-9a-homoerythromycin A was measured by HPLC. The data thus obtained are set forth in Table 9 below, and plotted in FIG. 22.

[2] = Intrinsic dissolution rate (Intrinsic Dissolution Tester, Van Kel Type); assay type: physicochemical; settings: pH 3 and pH 6, 37° C.
Experimental: In addition to the above data, the intrinsic dissolution rates (IDR's) for the new pseudopolymorph of the invention and the commercial dihydrate, at pH 3 and pH 6 and 37° C., were determined by Intrinsic Dissolution Tester, Van Kel Type.

[3] = Solid state stability by X-ray powder diffraction at varied humidity and temperature; assay type: physicochemical; settings: 5% RH to 75% RH; 30° C. to 75° C.
Experimental: The solid state stability of the 9-deoxo-9a-aza-9a-methyl-9a-homoerythromycin A pseudopolymorph Ia (x=1, y=0) was determined by measuring the solid state x-ray powder diffraction pattern for this material at four different percent relative humidities (% RH), ranging from 5% RH to 75% RH, and at five different temperatures, increasing from 30° C. to 75° C. using Philips X'PertPRO powder X-ray diffractometer equipped with Anton Paar TTK-100 humidity camera used for non-ambient data collection.

[4] = Similarity factors (f2) calculated for the dissolution profiles; assay type: physicochemical
Experimental: In order to further assess the data from Table 6, similarity factors (f2) were calculated according to the method described in Note for Guidance on the Investigation of Bioavailability and Bioequivalence (EMEA, December 1998, London) for the dissolution profiles of the two species (9-deoxo-9a-aza-9a-methyl-9a-homoerythromycin A, pseudopolymorph Ia of the present invention, and commercial 9-deoxo-9a-aza-9a-methyl-9a-homoerythromycin A dihydrate).

in vivo = settings: rat, 50 mg/kg
Text: 32 animals were studied using a cross-over experimental design experiment. A non-compartmental analysis was used to determine the concentrations of the respective materials in whole blood and plasma as a function of time.

Percent dissolved ([1]; pH 6, 37° C., 5 minutes, listed as Ik (Example 6)): 99.8%
Percent dissolved ([1]; pH 6, 37° C., 10 minutes, listed as Ik (Example 6)): 99.9%
Percent dissolved ([1]; pH 6, 37° C., 20 minutes, listed as Ik (Example 6)): 97.1%
Percent dissolved ([1]; pH 6, 37° C., 45 minutes, listed as Ik (Example 6)): 97.6%
Compound: CC[C@H]1OC(=O)[C@H](C)[C@@H](O[C@H]2C[C@@](C)(OC)[C@@H](O)[C@H](C)O2)[C@H](C)[C@@H](O[C@@H]2O[C@H](C)C[C@H](N(C)C)[C@H]2O)[C@](C)(O)C[C@@H](C)CN(C)[C@H](C)[C@@H](O)[C@]1(C)O [Pseudopolymorph Ik, 9-deoxo-9a-aza-9a-methyl-9a-homoerythromycin A]

Intrinsic dissolution rate (IDR) [2]: 2.5-2.8 mg min^−1 cm^−2
IDR higher than the IDR of the dihydrate ([2]; relative to dihydrate): 40 to 50%
Solid state stability (phase transitions by x-ray powder diffraction) [3]: no phase-transitions occur
Similarity factor (f2) ([4]; Batch 1 vs. Batch 2 of Example 19, pH = 3): 61.3
Similarity factor (f2) ([4]; Batch 1 vs. Batch 2 of Example 19, pH = 6): 63.1
Similarity factor (f2) ([4]; Batch 1 vs. Batch 3 of Example 19, pH = 3): 74.7
Similarity factor (f2) ([4]; Batch 1 vs. Batch 3 of Example 19, pH = 6): 75.4
Similarity factor (f2) ([4]; Batch 2 vs. Batch 3 of Example 19, pH = 3): 71.3
Similarity factor (f2) ([4]; Batch 2 vs. Batch 3 of Example 19, pH = 6): 75.3
Similarity factor (f2) ([4]; Dihydrate vs. Batch 1 of Example 19, pH = 3): 28.6
Similarity factor (f2) ([4]; Dihydrate vs. Batch 1 of Example 19, pH = 6): 25
Similarity factor (f2) ([4]; Dihydrate vs. Batch 2 of Example 19, pH = 3): 27.5
Similarity factor (f2) ([4]; Dihydrate vs. Batch 2 of Example 19, pH = 6): 22.2
Similarity factor (f2) ([4]; Dihydrate vs. Batch 3 of Example 19, pH = 3): 29.4
Similarity factor (f2) ([4]; Dihydrate vs. Batch 3 of Example 19, pH = 6): 23.7
AUC(0-12) higher relative to the commercial dihydrate (in vivo): approximately 20%
AUC(0-48) (in vivo): 35659.0 nghr/ml
Tmax (in vivo): 2 h
Percent dissolved ([1]; pH 3, 37° C., 5 minutes, listed as Ia (Example 19, Batch 1)): 25.1%
Percent dissolved ([1]; pH 3, 37° C., 5 minutes, listed as Ia (Example 19, Batch 3)): 21.1%
Percent dissolved ([1]; pH 3, 37° C., 5 minutes, listed as Ia (Example 19 Batch 2)): 18.5%
Percent dissolved ([1]; pH 3, 37° C., 10 minutes, listed as Ia (Example 19, Batch 1)): 37.1%
Percent dissolved ([1]; pH 3, 37° C., 10 minutes, listed as Ia (Example 19, Batch 3)): 32.4%
Percent dissolved ([1]; pH 3, 37° C., 10 minutes, listed as Ia (Example 19 Batch 2)): 30.7%
Percent dissolved ([1]; pH 3, 37° C., 20 minutes, listed as Ia (Example 19, Batch 1)): 45.8%
Percent dissolved ([1]; pH 3, 37° C., 20 minutes, listed as Ia (Example 19, Batch 3)): 43.3%
Percent dissolved ([1]; pH 3, 37° C., 20 minutes, listed as Ia (Example 19 Batch 2)): 45.1%
Percent dissolved ([1]; pH 3, 37° C., 45 minutes, listed as Ia (Example 19, Batch 1)): 55.5%
Percent dissolved ([1]; pH 3, 37° C., 45 minutes, listed as Ia (Example 19, Batch 3)): 56%
Percent dissolved ([1]; pH 3, 37° C., 45 minutes, listed as Ia (Example 19 Batch 2)): 60.9%
Percent dissolved ([1]; pH 3, 37° C., 60 minutes, listed as Ia (Example 19, Batch 1)): 58.3%
Percent dissolved ([1]; pH 3, 37° C., 60 minutes, listed as Ia (Example 19, Batch 3)): 61.1%
Percent dissolved ([1]; pH 3, 37° C., 60 minutes, listed as Ia (Example 19 Batch 2)): 64.8%
Percent dissolved ([1]; pH 3, 37° C., 90 minutes, listed as Ia (Example 19, Batch 1)): 62.9%
Percent dissolved ([1]; pH 3, 37° C., 90 minutes, listed as Ia (Example 19, Batch 3)): 64.7%
Percent dissolved ([1]; pH 3, 37° C., 90 minutes, listed as Ia (Example 19 Batch 2)): 70%
Percent dissolved ([1]; pH 6, 37° C., 5 minutes, listed as Ia (Example 19, Batch 1)): 67.0%
Percent dissolved ([1]; pH 6, 37° C., 5 minutes, listed as Ia (Example 19, Batch 3)): 70.2%
Percent dissolved ([1]; pH 6, 37° C., 5 minutes, listed as Ia (Example 19 Batch 2)): 71.7%
Percent dissolved ([1]; pH 6, 37° C., 10 minutes, listed as Ia (Example 19, Batch 1)): 73.2%
Percent dissolved ([1]; pH 6, 37° C., 10 minutes, listed as Ia (Example 19, Batch 3)): 77.3%
Percent dissolved ([1]; pH 6, 37° C., 10 minutes, listed as Ia (Example 19 Batch 2)): 81.4%
Percent dissolved ([1]; pH 6, 37° C., 20 minutes, listed as Ia (Example 19, Batch 1)): 76.7%
Percent dissolved ([1]; pH 6, 37° C., 20 minutes, listed as Ia (Example 19, Batch 3)): 77%
Percent dissolved ([1]; pH 6, 37° C., 20 minutes, listed as Ia (Example 19 Batch 2)): 81.6%
Percent dissolved ([1]; pH 6, 37° C., 45 minutes, listed as Ia (Example 19, Batch 1)): 76.7%
Percent dissolved ([1]; pH 6, 37° C., 45 minutes, listed as Ia (Example 19, Batch 3)): 77.6%
Percent dissolved ([1]; pH 6, 37° C., 45 minutes, listed as Ia (Example 19 Batch 2)): 80.4%
Percent dissolved ([1]; pH 6, 37° C., 60 minutes, listed as Ia (Example 19, Batch 1)): 74.5%
Percent dissolved ([1]; pH 6, 37° C., 60 minutes, listed as Ia (Example 19, Batch 3)): 78%
Percent dissolved ([1]; pH 6, 37° C., 60 minutes, listed as Ia (Example 19 Batch 2)): 79.9%
Percent dissolved ([1]; pH 6, 37° C., 90 minutes, listed as Ia (Example 19, Batch 1)): 75.8%
Percent dissolved ([1]; pH 6, 37° C., 90 minutes, listed as Ia (Example 19, Batch 3)): 79.2%
Percent dissolved ([1]; pH 6, 37° C., 90 minutes, listed as Ia (Example 19 Batch 2)): 80%
Compound: CC[C@H]1OC(=O)[C@H](C)[C@@H](O[C@H]2C[C@@](C)(OC)[C@@H](O)[C@H](C)O2)[C@H](C)[C@@H](O[C@@H]2O[C@H](C)C[C@H](N(C)C)[C@H]2O)[C@](C)(O)C[C@@H](C)CN(C)[C@H](C)[C@@H](O)[C@]1(C)O [Pseudopolymorph Ia, 9-deoxo-9a-aza-9a-methyl-9a-homoerythromycin A]

Intrinsic dissolution rate (IDR) [2]: about 1.8 mg min^−1 cm^−2
AUC(0-48) (in vivo): 31696.6 nghr/ml
Tmax (in vivo; po): 2 h
Percent dissolved ([1]; pH 3, 37° C., 5 minutes): 3.9%
Percent dissolved ([1]; pH 3, 37° C., 10 minutes): 8.1%
Percent dissolved ([1]; pH 3, 37° C., 20 minutes): 14.6%
Percent dissolved ([1]; pH 3, 37° C., 45 minutes): 26.7%
Percent dissolved ([1]; pH 3, 37° C., 60 minutes): 33.3%
Percent dissolved ([1]; pH 3, 37° C., 90 minutes): 39.1%
Percent dissolved ([1]; pH 6, 37° C., 5 minutes): 14.5%
Percent dissolved ([1]; pH 6, 37° C., 10 minutes): 27.3%
Percent dissolved ([1]; pH 6, 37° C., 20 minutes): 44.2%
Percent dissolved ([1]; pH 6, 37° C., 45 minutes): 69.1%
Percent dissolved ([1]; pH 6, 37° C., 60 minutes): 73.7%
Percent dissolved ([1]; pH 6, 37° C., 90 minutes): 75.0%
Compound: CC[C@H]1OC(=O)[C@H](C)[C@@H](O[C@H]2C[C@@](C)(OC)[C@@H](O)[C@H](C)O2)C(C)[C@@H](O[C@@H]2O[C@H](C)CC(N(C)C)[C@H]2O)[C@](C)(O)C[C@@H](C)CN(C)[C@H](C)[C@@H](O)[C@]1(C)O (stereo partly shown) [9-deoxo-9a-aza-9a-methyl-9a-homoerythromycin A dihydrate, reference compound]
